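The compound was tested at five concentrations on cells cultured in 96-well plates, with a 48-hour exposure period. Here, GI50 denotes the concentration required for 50% inhibition of growth. The concentration for full growth arrest is given as TGI.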
What was measured:
Assay in all cases: growth of human tumour cells (NCI), 48 h
786-0 renal = test system: 786-0 renal
MALME-3M melanoma = test system: MALME-3M melanoma
UACC-62 melanoma = test system: UACC-62 melanoma
SN12C renal = test system: SN12C renal
COLO 205 colon = test system: COLO 205 colon
RXF 393 renal = test system: RXF 393 renal
LOX IMVI melanoma = test system: LOX IMVI melanoma
SF-295 CNS = test system: SF-295 CNS
HL-60(TB) leukemia = test system: HL-60(TB) leukemia
MDA-MB-435 = test system: MDA-MB-435

Q: How did the TGI (786-0 renal) turn out when `COc1ccc(/C=C(\NC(=O)c2ccccc2)c2nc3ccccc3[nH]2)cc1` was run?
A: > 100 µM

Q: What about the TGI (MALME-3M melanoma) of the same molecule?
A: > 100 µM

Q: And the TGI (UACC-62 melanoma)?
A: > 100 µM

Q: What about the TGI (SN12C renal) of the same molecule?
A: > 100 µM

Q: And the TGI (COLO 205 colon)?
A: 75.8 µM

Q: For `N#CC1=C(N)Oc2c(ccc3ccccc23)C1c1ccccc1Cl` (stereo not given), which GI50 (RXF 393 renal) is on record?
A: 0.238 µM

Q: And the TGI (RXF 393 renal)?
A: 18.6 µM

Q: What about the GI50 (786-0 renal) of the same molecule?
A: 0.754 µM

Q: What about the TGI (786-0 renal) of the same molecule?
A: 16.4 µM

Q: And the GI50 (MALME-3M melanoma)?
A: 0.617 µM

Q: What about the TGI (MALME-3M melanoma) of the same molecule?
A: 22.9 µM

Q: And the GI50 (LOX IMVI melanoma)?
A: 0.479 µM

Q: What about the TGI (LOX IMVI melanoma) of the same molecule?
A: 12.1 µM

Q: What about the GI50 (UACC-62 melanoma) of the same molecule?
A: 0.677 µM

Q: And the TGI (UACC-62 melanoma)?
A: 17.7 µM

Q: And the GI50 (SN12C renal)?
A: 0.722 µM

Q: And the TGI (SN12C renal)?
A: 13.9 µM

Q: What about the GI50 (SF-295 CNS) of the same molecule?
A: 0.233 µM

Q: And the TGI (SF-295 CNS)?
A: 11.3 µM

Q: And the GI50 (COLO 205 colon)?
A: 0.362 µM

Q: What about the TGI (COLO 205 colon) of the same molecule?
A: 12.9 µM

Q: And the GI50 (HL-60(TB) leukemia)?
A: 0.27 µM

Q: What about the TGI (HL-60(TB) leukemia) of the same molecule?
A: 0.776 µM

Q: Which results are given for `CCc1cccc(C(C)C)c1C1C(=O)C(=O)N(c2nc3ccccc3s2)C(=O)C1=O`?
A: TGI (RXF 393 renal): > 100 µM; TGI (786-0 renal): > 100 µM; TGI (MALME-3M melanoma): > 100 µM; TGI (LOX IMVI melanoma): > 100 µM; TGI (UACC-62 melanoma): > 100 µM; TGI (SN12C renal): > 100 µM; TGI (SF-295 CNS): > 100 µM; TGI (COLO 205 colon): > 100 µM; TGI (HL-60(TB) leukemia): > 100 µM

Q: Which GI50 (786-0 renal) does the source give for `CC1SC(c2cccc(Oc3ccccc3)c2)N(CCc2cccs2)C1=O` (stereo not given) here?
A: 1.2 µM

Q: What about the TGI (786-0 renal) of the same molecule?
A: 2.83 µM

Q: What about the GI50 (MALME-3M melanoma) of the same molecule?
A: 1.73 µM

Q: And the TGI (MALME-3M melanoma)?
A: 3.58 µM

Q: And the GI50 (LOX IMVI melanoma)?
A: 0.883 µM

Q: What about the TGI (LOX IMVI melanoma) of the same molecule?
A: 2.11 µM

Q: And the GI50 (MDA-MB-435)?
A: 1.19 µM

Q: What about the TGI (MDA-MB-435) of the same molecule?
A: 3.14 µM

Q: And the GI50 (UACC-62 melanoma)?
A: 0.676 µM

Q: What about the TGI (UACC-62 melanoma) of the same molecule?
A: 2.22 µM

Q: And the GI50 (SN12C renal)?
A: 1.25 µM

Q: What about the TGI (SN12C renal) of the same molecule?
A: 2.7 µM

Q: And the GI50 (SF-295 CNS)?
A: 0.725 µM

Q: What about the TGI (SF-295 CNS) of the same molecule?
A: 2.23 µM

Q: And the GI50 (COLO 205 colon)?
A: 1.5 µM

Q: What about the TGI (COLO 205 colon) of the same molecule?
A: 3.05 µM

Q: What about the GI50 (HL-60(TB) leukemia) of the same molecule?
A: 1.17 µM

Q: What about the TGI (HL-60(TB) leukemia) of the same molecule?
A: 6.56 µM

Q: For `O=S(O)CCCSSCCCCSSCCCS(=O)O`, which TGI (RXF 393 renal) is on record?
A: > 100 µM

Q: And the TGI (786-0 renal)?
A: > 100 µM

Q: What about the TGI (MALME-3M melanoma) of the same molecule?
A: > 100 µM

Q: And the TGI (LOX IMVI melanoma)?
A: > 100 µM

Q: And the TGI (UACC-62 melanoma)?
A: > 100 µM

Q: And the TGI (SN12C renal)?
A: > 100 µM

Q: What about the TGI (SF-295 CNS) of the same molecule?
A: > 100 µM

Q: And the TGI (COLO 205 colon)?
A: > 100 µM

Q: Which results are given for `O=C1c2ccccc2CC1C1(O)C(=O)Nc2c(Cl)cc(Cl)cc21` (stereo not given)?
A: TGI (RXF 393 renal): 85.8 µM; TGI (786-0 renal): > 100 µM; TGI (MALME-3M melanoma): > 100 µM; TGI (LOX IMVI melanoma): > 100 µM; TGI (SN12C renal): > 100 µM; TGI (SF-295 CNS): > 100 µM; TGI (COLO 205 colon): > 100 µM; TGI (HL-60(TB) leukemia): 96.4 µM

Q: For `CCN(CC)CC(C(=O)Nc1c(C)cccc1C)/C(C)=N/NC(N)=S` (stereo not given), which TGI (RXF 393 renal) is on record?
A: > 100 µM

Q: What about the TGI (786-0 renal) of the same molecule?
A: > 100 µM

Q: And the TGI (MALME-3M melanoma)?
A: > 100 µM

Q: And the TGI (LOX IMVI melanoma)?
A: > 100 µM

Q: What about the TGI (UACC-62 melanoma) of the same molecule?
A: > 100 µM

Q: And the TGI (SF-295 CNS)?
A: > 100 µM

Q: And the TGI (COLO 205 colon)?
A: > 100 µM

Q: What about the TGI (HL-60(TB) leukemia) of the same molecule?
A: > 100 µM

Q: Which results are given for `O=c1c2ccccc2nc(-c2ccccc2Cl)n1NC1OC(CO)C(O)C(O)C1O` (stereo not given)?
A: TGI (786-0 renal): > 100 µM; TGI (MALME-3M melanoma): > 100 µM; TGI (UACC-62 melanoma): > 100 µM; TGI (SN12C renal): > 100 µM; TGI (SF-295 CNS): > 100 µM; TGI (COLO 205 colon): > 100 µM; TGI (HL-60(TB) leukemia): > 100 µM

Q: Which results are given for `COc1cc(C2C(C(=O)Nc3ccc(Cl)c(Cl)c3)=C(C)NC(C)=C2C(=O)Nc2ccc(Cl)c(Cl)c2)ccc1O`?
A: TGI (RXF 393 renal): 12.8 µM; TGI (786-0 renal): 25.3 µM; TGI (MALME-3M melanoma): 27.3 µM; TGI (LOX IMVI melanoma): 33.9 µM; TGI (SN12C renal): 30.9 µM; TGI (SF-295 CNS): 34.5 µM; TGI (COLO 205 colon): 30.2 µM; TGI (HL-60(TB) leukemia): 23.3 µM

Q: What does the source list for `CN(C)CCCn1c2c(c3ccc([N+](=O)[O-])cc3c1=O)C(=O)c1ccccc1-2`?
A: GI50 (786-0 renal): 4.75 µM; TGI (786-0 renal): 21.2 µM; GI50 (MALME-3M melanoma): 7.86 µM; TGI (MALME-3M melanoma): > 100 µM; GI50 (LOX IMVI melanoma): 2.87 µM; TGI (LOX IMVI melanoma): 13.3 µM; GI50 (MDA-MB-435): > 100 µM; TGI (MDA-MB-435): > 100 µM; GI50 (UACC-62 melanoma): 7.13 µM; TGI (UACC-62 melanoma): 24.6 µM; GI50 (SN12C renal): 4.21 µM; TGI (SN12C renal): 24.5 µM; GI50 (SF-295 CNS): 8.63 µM; TGI (SF-295 CNS): > 100 µM; GI50 (COLO 205 colon): 23.9 µM; TGI (COLO 205 colon): 87.5 µM
